The values below come from ChEMBL document CHEMBL1126209, “Synthesis of a peptidyl 2,2-difluoro-3-aminopropionate” (Bioorg Med Chem Lett, 1992).

The Ki is a dissociation constant, usually derived from enzyme kinetics or from competition with a known ligand. Low readings indicate higher affinity, high ones lower affinity.

In the assay the target is T1, Neutrophil elastase (Homo sapiens, UniProt P08246).
T1 sequence (P08246 whole entry): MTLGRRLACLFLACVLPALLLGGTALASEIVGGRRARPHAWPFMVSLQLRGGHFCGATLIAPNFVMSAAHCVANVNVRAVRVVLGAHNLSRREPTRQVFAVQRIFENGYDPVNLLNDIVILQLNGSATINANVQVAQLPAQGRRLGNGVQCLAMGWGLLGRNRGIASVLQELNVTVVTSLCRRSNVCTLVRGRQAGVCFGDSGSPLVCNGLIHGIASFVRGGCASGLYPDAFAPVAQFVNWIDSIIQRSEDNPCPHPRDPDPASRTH
Briefly: Compound was evaluated In vitro for inhibition of human neutrophil elastase.

Residues, ends and D or L forms follow the SMILES beside them. *: point of attachment. Dansyl = CN(C)c1cccc2c(S(=O)(=O)*)cccc12; Cbz = O=C(OCc1ccccc1)*; CF3 = FC(F)(F)*

The molecule `CCOC(=O)C(F)(F)C(NC(=O)C1CCCN1C(=O)C(C)NC(=O)C(C)NC(=O)OC(C)(C)C)C(C)C` (centres undefined) gave a Ki above 300000 nM.

Molecule `CC(C)[C@H](NC(=O)[C@@H]1CCCN1C(=O)[C@H](C)NC(=O)[C@H](C)NCC(=O)OC(C)(C)C)C(=O)C(F)(F)F` showed a Ki of 44 nM.

For `CC(C)[C@H](NC(=O)[C@@H]1CCCN1C(=O)[C@H](C)NC(=O)[C@H](C)NC(=O)OCc1ccccc1)C(=O)C(F)(F)F` (Cbz-AAPV-CF3), the affinity corresponds to a Ki of 1 nM.

`CC(C)[C@H](NC(=O)[C@@H]1CCCN1C(=O)[C@H](C)NC(=O)[C@H](C)NS(=O)(=O)c1cccc2c(N(C)C)cccc12)C(=O)C(F)(F)F` (Dansyl-AAPV-CF3): the Ki turned out to be 10 nM.
